Measured values published in patent US9694006B2, “Use of pyrroloquinoline compounds to kill clinically latent microorganisms” (HELPERBY THERAPEUTICS LIMITED, priority 2005, dated 2017).

Tests used:
[1] = test system: Staph. aureus stationary phase bacteria; assay: Bactericidal activity against stationary-phase cultures (CFU counts), Staph. aureus; assay type: cell-based, Staphylococcus aureus; conditions: 5 μg/mL of test compound
[2] = test system: E. coli persister bacteria; assay: Bactericidal activity against persistent bacteria (CFU counts), E. coli; conditions: 25 μg/mL of test compound

Structure (SMILES)	log kill [1]	log kill [2]
COc1cc(OC)c2nc(C)c3c(c2c1)N(c1cccc(Oc2ccccc2)c1)CC3.O=C(O)C(F)(F)F [Example 1(a), 6,8-Dimethoxy-4-methyl-1-(3-phenoxyphenyl)-2,3-dihydro-1H-pyrrolo[3,2-c]quinoline trifluoroacetate]	3.55	–
Cc1nc2ccc(Oc3ccccc3)cc2c2c1CCN2Cc1ccccc1 [Example 1(h), 1-Benzyl-4-methyl-8-phenoxy-2,3-dihydro-1H-pyrrolo[3,2-c]quinoline]	–	3.83
